According to ChEMBL document CHEMBL1275478, “Enantioselective and nonlinear intestinal absorption of eflornithine in the rat” (Antimicrob Agents Chemother, 2008):

How the values were obtained:
Assay type in all cases: ADME, organism-based
Rattus norvegicus [1] = assay: Intercompartmental clearance in Sprague-Dawley rat assessed as D-eflornithine at 1000 mg/kg, iv administered as 3 mins short-term infusion; set-up: dose 1000 mg/kg, route intravenous; details: in vivo, 0.05 h
Rattus norvegicus [2] = assay: Intercompartmental clearance in Sprague-Dawley rat assessed as L-eflornithine at 375 mg/kg, iv administered as single infusion; set-up: dose 375 mg/kg, route intravenous; details: in vivo
[3] = Oral bioavailability in Sprague-Dawley rat at 750 mg/kg, po; details: in vivo, pooled result: one value given for 3 cell lines, strains, targets or settings
Rattus norvegicus [4] = assay: Intercompartmental clearance in Sprague-Dawley rat assessed as D-eflornithine at 375 mg/kg, iv administered as single infusion; set-up: dose 375 mg/kg, route intravenous; details: in vivo
Rattus norvegicus [5] = assay: Intercompartmental clearance in Sprague-Dawley rat assessed as L-eflornithine at 1000 mg/kg, iv administered as 3 mins short-term infusion; set-up: dose 1000 mg/kg, route intravenous; details: in vivo, 0.05 h
[6] = Oral bioavailability in Sprague-Dawley rat at 3000 mg/kg, po; details: in vivo
Rattus norvegicus [7] = assay: Mean transit time in Sprague-Dawley rat assessed as D-eflornithine at 750 to 3000 mg/kg, po; set-up: dose 750-3000 mg/kg, route oral; details: in vivo
Rattus norvegicus [8] = assay: Mean transit time in Sprague-Dawley rat assessed as L-eflornithine at 750 to 3000 mg/kg, po; set-up: dose 750-3000 mg/kg, route oral; details: in vivo
[9] = Clearance in Sprague-Dawley rat at 375 mg/kg, iv administered as single infusion; set-up: dose 375 mg/kg, route intravenous; details: in vivo
[10] = Central volume of distribution in Sprague-Dawley rat at 1000 mg/kg, iv administered as 3 mins short-term infusion; set-up: dose 1000 mg/kg, route intravenous; details: in vivo
[11] = Central volume of distribution in Sprague-Dawley rat at 375 mg/kg, iv administered as single infusion; set-up: dose 375 mg/kg, route intravenous; details: in vivo
[12] = Clearance in Sprague-Dawley rat at 1000 mg/kg, iv administered as 3 mins short-term infusion; set-up: dose 1000 mg/kg, route intravenous; details: in vivo

CL (Rattus norvegicus [1])	CL (Rattus norvegicus [2])	bioavailability [3]	CL (Rattus norvegicus [4])	CL (Rattus norvegicus [5])	bioavailability [6]	MTT (Rattus norvegicus [7])	MTT (Rattus norvegicus [8])	clearance [9]	Vd [10]	Vd [11]	clearance [12]	Structure (SMILES)
1.2 mL/min/kg	1.2 mL/min/kg	62.3%	1.2 mL/min/kg	1.2 mL/min/kg	82.7%	88 min	88 min					NCCCC(N)(C(=O)O)C(F)F (racemic) [EFLORNITHINE]
								12.6 mL/min/kg	0.401 L/kg			NCCC[C@@](N)(C(=O)O)C(F)F [D-EFLORNITHINE]
		41%			47%			14.5 mL/min/kg	0.404 L/kg	0.404 L/kg	14.5 mL/min/kg	NCCC[C@](N)(C(=O)O)C(F)F [EFLORNITHINE, (S)-]
